For one data set, the system named is recurrent glioblastoma. The conditions noted are these: patients with recurrent glioblastoma; cited from earlier work.
The next data set concerns BRCA mutant animal model. The conditions noted are these: cited from earlier work.
Data set [1] deals with human small cell lung cancer NCI-H209 cells. Description: CCK-8 growth inhibition of NCI-H209 cells, IMP4297 alone and combined with TMZ. It counts as cell-based. The conditions noted are these: NCI-H209, 120 h. How it is done: The CCK-8 detection method was used to determine the inhibitory effect of IMP4297 combined with TMZ on the growth of human small cell lung cancer NCI-H209 cells. The resuscitated human small cell lung cancer NCI-H209 cells were inoculated into a culture dish, experimental medium (RPMI1640+20% FBS) was added, and the culture dish was incubated at 37° C. and 5% CO2 in an incubator. Cells with good growth and suitable confluence were selected for the experiment, and centrifiged at 800 rpm for 5 min. The supernatant was discarded. The cells were resuspended with fresh medium and inoculated into a 96-well cell culture plate at a suitable cell density. 190 μL of cell suspension liquid was inoculated into each well. The test compound (including IMP4297, TMZ and reference compound AZD2281) was serially diluted with DMSO at a ratio of 1:3 and 1:10 to 10 concentrations (the last concentration is the DMSO negative control). 5 μL of each concentration was added to 120 μL of media (25 times dilution). The mixture was mixed well by shaking. Separate medication: 5 μL of the diluted medium containing the corresponding concentration of the compound and 5 μL of the medium were added respectively, combined medication. 5 μL of the diluted medium containing the corresponding concentration of the compound and 5 μL of the medium containing the final concentration of 50 μM of TMZ were added respectively. The final concentration of DMSO is […]. The culture plate was then incubated at 37° C. and 5% CO2 in an incubator for 5 days. 20 μL of CCK-8 detection reagent was added to each well, and the culture was continued for 2 hours. The culture plate was then shaked for 10 minutes and placed on a multi-function reader to measure the absorbance value (OD value) using the wavelength of 450/65011m. Graph Pad Prism 6.0 was used to analyze the data. The inhibitory effects of compounds on cell proliferation were plotted based on cell viability and the logarithm of compound concentration. Cell viability % (nM) ODcompound/ODDMSO×100. […] The combination index was calculated using CalcuSyn software. […]

For data set [2], the target named is T1, PARP1 (Homo sapiens, UniProt P09874). Description: PARP1 trapping in HCT116 cells treated with TMZ (Western blot of chromatin-bound proteins, ImageJ). It counts as cell-based. Set-up: endogenous in cells; host or cells: HCT116. The following applies: for grey density value of PARP1 band: 4 hours, HCT116. Here is the method: Colorectal carcinoma HCT116 cells were used in the experiment Cells in exponential growth phase were trypsinized and seeded to 10 cm cell culture plate at a density about 10-20% confluency After two days when cell density reached 70-80%, the cell culture was replaced with fresh medium containing vehicle, 0.1 μM or 10 μM of IMP4297 either in the presence or absence of 1 mM TMZ. Cells were treated for 4 hours. Chromatin-bound proteins were extracted according to the “Subcellular Protein Fractionation Kit for Cultured Cells (Thermo, LOT78840)” protocol.
T1 sequence (P09874 whole entry): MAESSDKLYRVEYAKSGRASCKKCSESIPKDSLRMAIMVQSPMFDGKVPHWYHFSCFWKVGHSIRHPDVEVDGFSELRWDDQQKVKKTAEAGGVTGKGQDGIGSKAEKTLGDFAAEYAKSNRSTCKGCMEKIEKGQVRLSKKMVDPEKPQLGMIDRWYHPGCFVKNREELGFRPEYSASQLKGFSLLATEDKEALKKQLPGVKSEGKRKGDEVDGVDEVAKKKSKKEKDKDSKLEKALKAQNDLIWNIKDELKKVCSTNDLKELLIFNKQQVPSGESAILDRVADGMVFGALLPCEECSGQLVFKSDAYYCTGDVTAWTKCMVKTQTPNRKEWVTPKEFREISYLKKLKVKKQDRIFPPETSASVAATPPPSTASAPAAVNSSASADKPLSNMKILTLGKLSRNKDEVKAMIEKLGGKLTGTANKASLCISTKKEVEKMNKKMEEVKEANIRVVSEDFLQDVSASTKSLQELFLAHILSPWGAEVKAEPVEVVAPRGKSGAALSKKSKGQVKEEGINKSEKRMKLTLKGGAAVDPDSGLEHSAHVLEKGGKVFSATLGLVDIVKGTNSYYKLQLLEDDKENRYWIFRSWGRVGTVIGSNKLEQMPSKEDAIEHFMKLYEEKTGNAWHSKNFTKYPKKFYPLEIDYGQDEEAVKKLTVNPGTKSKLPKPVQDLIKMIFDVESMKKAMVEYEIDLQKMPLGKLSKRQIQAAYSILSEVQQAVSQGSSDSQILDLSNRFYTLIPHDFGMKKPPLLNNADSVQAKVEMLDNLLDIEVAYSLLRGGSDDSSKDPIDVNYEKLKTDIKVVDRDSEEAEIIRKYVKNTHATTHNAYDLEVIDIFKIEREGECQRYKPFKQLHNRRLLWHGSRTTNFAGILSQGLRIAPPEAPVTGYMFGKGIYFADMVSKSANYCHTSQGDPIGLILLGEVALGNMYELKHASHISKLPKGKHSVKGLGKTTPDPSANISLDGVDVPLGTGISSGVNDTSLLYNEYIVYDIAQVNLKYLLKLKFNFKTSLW
PARP trapping was detected using SDS-PAGE electrophoresis followed by Western blot Extracted chromatin-bound protein samples were mixed with 5×SDS-PAGE solution and heated for 5 min at 100° C. Equal amount (25-30 μg) of protein was loaded to each lane on a pre-made SDS-PAGE gel (Genscript SurePAGE™, Bis-Tris, 4-20%, 15 wells M00657). Anti-PARP1 antibody (ABCAM ab227244) used in the study was 1:1000 diluted, anti-Histone 113 antibody (ABCAM ab1791) was 1.5000 diluted and anti-rabbit IgG HRP-linked Antibody (CST 7074s) was 1:2000 diluted. The bands were detected by standard Western blot protocol.
For orientation: A western blot detects proteins with antibodies after separation by electrophoresis.

The test system of data set [3] is animal model with BRCA mutation. The following applies: cited from earlier work.
Data set [4] has as its target T1, PARP1. Nature of the data set: PARP1 trapping in DU145 cells treated with MMS (Western blot of nuclear chromosomal fraction, ImageJ). It counts as cell-based. The following applies: for grey density value of PARP1 band: MMS 0.01%, 4 hours. Set-up: the nuclear chromosomal component was extracted according to subcellular protein fractionation kit instructions; endogenous in cells; host or cells: DU145. Here is the method:
Human prostate cancer DU145 cells were used in the experiment. On the first day, cells were seeded to 10 cm cell culture dishes and kept in an incubator overnight. […] The plates were swirled, and the cells were kept in an incubator at 37° C., 5% CO2 for 4 hours. Totally 12 samples were prepared and tested. After incubation, the nuclear chromosomal component was extracted according to subcellular protein fractionation kit instructions. Protein concentration was measured by Pierce® BCA Protein Assay Kit (Thermo) and protein was ready for western blot assay. 10 μg protein was loaded into each well of bolt gels, then wet transfer was performed, and the membrane was incubated overnight at 4° C. with anti-PARP antibody (Santa Cruz Biotechnology) with 1.500 dilution and 1:25000 dilution of anti-H3 antibody, respectively. The membrane was washed the next day with TBST 3 times, 5 minutes/time, then incubated with Goat anti-rabbit IgG-HRP (Santa Cruz Biotechnology) in a 1:4000 dilution for 1 hour at room temperature. ECL Prime Western Blotting Det kit (GE) was used to develop the target on the membrane.

For data set [5], the system named is animal model with BRCA mutation. Description: IMP4297 single agent efficacy in animal model with BRCA mutation. Type of data set: in vivo. The following applies: 2.5-20 mg/kg QD in mice.
For data set [6], the system named is cancer. Description: Clinical studies of IMP4297 as a single agent in patients with cancer (ESMO 2020 abstracts). Type of data set: in vivo. The following applies: 20-120 mg QD in human.
Data set [7] relates to cancer. The following applies: QD continuously, cited from earlier work.
Data set [8] relates to NCI-H209 human small cell lung cancer xenograft tumor. Nature of the data set: In vivo efficacy of IMP4297 combined with TMZ in NCI-H209 xenograft tumor model. The conditions noted are these: for body weight reduction during the experiment: single agent-treated groups (TMZ 3 mg/kg; IMP4297 10 mg/kg). Set-up: species or system nude mice. How it is done:
The anti-tumor efficacy of the compound IMP4297 combined with TMZ was evaluated in the NCI-H209 human small cell lung cancer xenograft tumor model in nude mice. For this purpose, human small cell lung cancer NCI-H209 cells were inoculated into the subcutaneous breast area of the right axilla of nude mice. The cell inoculation amount was 2×10^6 logarithmic growth phase cells. The inoculated mice were used after transplanted tumors were formed. Vigorously growing tumor tissues were cut into small pieces of 1×1×1 mm^3, and inoculated under the skin of the breast area of the right axilla of each BALB/c nude mouse. When the average tumor volume reached about 124.08 (57.16-280.79) mm^3, nude mice were randomly grouped according to the tumor volume and were administered the drugs.
After grouping and drug treatment start, the weight of nude mice was weighed twice a week and recorded. Weight change (%)=(Wt−W1)/W1×100%, wherein W1 is the body weight measured at the time of grouping administration (i.e D1), and Wt is the weight of the recording day. Weight change (%) is a measure of treatment-related toxicity (when average weight loss exceeded 15%, treatment was stopped or the schedule was adjusted until recovery; when average weight loss exceeded 20%, the experiment was terminated). The tumor diameter (length and width) was measured twice a week with a vernier caliper. The tumor volume (length×width^2/2) and the relative tumor volume RTV=Vt/V1 were calculated, wherein V1 is the tumor volume at the time of grouping administration (i.e. D1), and Vt is the tumor volume at each measurement. […] TGM(%)=[(CVt−CV1)−(TVt−TV1)]/(CVt−CV1)×100%, wherein […] is the tumor volume on the recording day of the vehicle control group, […] is the tumor volume of the vehicle control group at the time of grouping administration, TVt is the tumor volume of the drug administration group on the recording day, and TV1 is the tumor volume of the drug administration group at the time of grouping administration.
After the experiment, 3 nude mice were randomly selected from each group, and 300 μL of whole blood was collected from the orbit and placed in a BD K2EDTA anticoagulant tube (REF367841) for routine blood testing.
GraphPad Prism 6.0 software two-way ANOVA was used to compare the mean tumor volume and relative tumor volume between groups. Compared with the control group (vehicle), *p<0.05 (statistical difference), **p<0.01 (significant statistical difference), ***p<0.001 (very significant statistical difference); compared with the TMZ group, ^#p<0.05 (statistical difference), ^##p<0.01 (significant statistical difference), ^###p<0.001 (very significant statistical difference); compared with the IMP4297 group, ^+p<0.05 (statistical difference), ^++p<0.01 (significant statistical difference), ^+++p<0.001 (very significant statistical difference).

Setting [9] is: separate medication, 5 days, CCK-8, read-out: IC50, proliferation of NCI-H209 cells.

Each structure is given as a SMILES string. Where two headings read alike, the source gives them in different places. Marks after values point to notes of the source that are not given here.

`O=C(c1cc(Cc2n[nH]c(=O)c3ccccc23)ccc1F)N1CCN(C(=O)C2CC2)CC1` [Olaparib]: in the data set on recurrent glioblastoma, the “effect on TMZ-related hematological toxicity” value is reported as “exacerbate TMZ-related hematological toxicity”. Also, the single effective dose in the data set with BRCA mutant animal model (BRCA mutant animal model study) is listed as 50-100 mg/kg per day. Besides, the IC50 in data set [1] (read-out: IC50, proliferation of NCI-H209 cells) was 2180 nM.

For `O=C(c1cc(Cn2c(=O)[nH]c(=O)c3c(F)cccc32)ccc1F)N1CCN(c2ncccn2)CC1` [IMP4297, 5-fluoro-1-(4-fluoro-3-(4-(pyrimidin-2-yl)piperazine-1-carbonyl)benzyl)quinazoline-2,4(1H,3H)-dione], the “PARP1 trapping in nuclear chromosome” value at PARP1 [2] (0.1-10 μM in HCT116 cells in the presence of TMZ) is “good PARP1 trapping”; at PARP1 [4] (0.01-10 μM, DU145 cells treated with MMS), “good PARP1 trapping”. Moreover, the “grey density value of PARP1 band” value on PARP1 [2] (IMP4297 0.1 μmol/L in the presence of TMZ 1 mM) was 398; at PARP1 [2] (IMP4297 0.1 μmol/L, vehicle (no TMZ)), 141; on PARP1 [2] (IMP4297 10 μmol/L in the presence of TMZ 1 mM), 446; on PARP1 [2] (IMP4297 10 μmol/L, vehicle (no TMZ)), 182; on PARP1 [4] (0.01 μmol/L drug, DU145), 3667.63; at PARP1 [4] (0.1 μmol/L drug, DU145) it was 4932.39. In addition, the “grey density value of PARP1 band” value on PARP1 [4] (1 μmol/L drug, DU145) worked out at 6036.79; at PARP1 [4] (10 μmol/L drug, DU145), 5302.8. In [3], the “effective dose as a single agent” value was 2.5-20 mg/kg per day. On PARP1 [4] (same concentrations and conditions, DU145), the “PARP1 trapping compared with Olaparib” value is “stronger PARP1 trapping in nuclear chromosome than Olaparib”. Moreover, the therapeutic window is 8 fold in [5] and 6 fold with cancer [6]. Moreover, in the data set with cancer [7] (cancer patients), the “clinically effective dose as a single agent” value is 20 to 120 mg. Further, the “RP2D as a single agent” value in the data set on cancer [7] is 100 mg. In [8] (IMP4297 10 mpk p.o. QD x 21 D), the “T/C (%)” value is on record as 79.12** %. Further, in data set [8] (IMP4297 10 mpk p.o. QD x 21 D), the “TGI (%)” value is listed as 18.80** %. Besides, in [8], the “body weight reduction during the experiment” value is “no body weight reduction”. Further, the “inhibitory effect on tumor growth versus vehicle” value in data set [8] (single agent: TMZ 3 mg/kg, IMP4297 10 mg/kg) was “no significant inhibitory effect on tumor growth”. Besides, in data set [1] (setting [9]), the IC50 came to 113 nM.

Consider `Cn1ncnc1[C@H]1c2n[nH]c(=O)c3cc(F)cc(c23)N[C@@H]1c1ccc(F)cc1` [Talazoparib], for which, in the data set on BRCA mutant animal model (BRCA mutated model), the “single agent effective dose” value is 0.33 mg/kg.

For `Cn1nnc2c(C(N)=O)ncn2c1=O` [TMZ, Temozolomide, reference compound], in data set [8] (TMZ 3 mg/kg p.o. QD x 21 D), the “T/C (%)” value is 64.03**** % and the “TGI (%)” value is 31.66**** %. In [8] (TMZ 3 mg/kg p.o. QD x 21 D, versus initial weight), the “Average weight change (%)” value amounted to 7.99 ± 5.21%. In addition, the “body weight reduction during the experiment” value in data set [8] is given as “no body weight reduction”. Besides, in data set [1] (setting [9]), the IC50 is over 100000 nM.
